Measurements: the NIST ThermoML archive (doi:10.1021/je600519p)

Experiment: xn = mol fraction of the nth substance listed
Conditions: 101 kPa, Liquid

CCOC(=O)OCC [diethyl carbonate] + CCCCCCO
Conditions	mass density, 313.15 K [kg/m3]	mass density, 323.15 K [kg/m3]	speed of sound, 313.15 K [m/s]	speed of sound, 323.15 K [m/s]	viscosity, 313.15 K [mPa·s]	viscosity, 323.15 K [mPa·s]
x1 = 0.0502	811.04	803.29	1252	1204	2.621	2.06
x1 = 0.1123	819.37	811.3	1236	1184	2.339	1.825
x1 = 0.1499	824.54	816.2	1224	1172	2.115	1.689
x1 = 0.2103	832.78	824.2	1211	1160	1.856	1.488
x1 = 0.2508	838.35	829.57	1203	1153	1.687	1.367
x1 = 0.3121	846.97	837.88	1192	1143	1.466	1.22
x1 = 0.3576	853.42	844.05	1185	1137	1.319	1.093
x1 = 0.4113	861.12	851.48	1177	1131	1.16	0.97
x1 = 0.4632	868.59	858.73	1170	1126	1.031	0.857
x1 = 0.5111	875.61	865.59	1165	1123	0.912	0.765
x1 = 0.552	881.55	871.51	1162	1121	0.826	0.689
x1 = 0.6008	888.91	878.65	1158	1119	0.744	0.607
x1 = 0.6498	896.35	885.85	1155	1117	0.689	0.568
x1 = 0.7108	905.65	894.96	1153	1115	0.61	0.532
x1 = 0.7554	912.55	901.77	1152	1114	0.607	0.535
x1 = 0.8112	921.16	910.41	1151	1113	0.602	0.537
x1 = 0.8501	927.49	916.42	1150	1112	0.606	0.54
x1 = 0.9002	935.57	924.3	1148	1111	0.61	0.544
x1 = 0.9555	944.49	933.24	1146	1110	0.615	0.548
